Measured values reported in patent publication US20220204539A1, “CD73 INHIBITORS” (BioArdis LLC, priority 2019, published 2022).

Columns and labels:
[1] = biological target: T1, Recombinant Human 5′-Nucleotidase (CD73) (Homo sapiens, UniProt P21589); assay: CD73 Enzyme Assay; type: biochemical; conditions: human CD73 0.5 nM, AMP 30 μM, PiColorLock phosphate detection; read-out: Potency (IC50, CD73 enzyme assay)
T1 construct: CHO derived CD73 (Trp27-Lys547), with a C-terminal 6-His tag; 6-His (C); purchased R&D 5795-EN; host or cells: CHO
T1 sequence (P21589 27-547): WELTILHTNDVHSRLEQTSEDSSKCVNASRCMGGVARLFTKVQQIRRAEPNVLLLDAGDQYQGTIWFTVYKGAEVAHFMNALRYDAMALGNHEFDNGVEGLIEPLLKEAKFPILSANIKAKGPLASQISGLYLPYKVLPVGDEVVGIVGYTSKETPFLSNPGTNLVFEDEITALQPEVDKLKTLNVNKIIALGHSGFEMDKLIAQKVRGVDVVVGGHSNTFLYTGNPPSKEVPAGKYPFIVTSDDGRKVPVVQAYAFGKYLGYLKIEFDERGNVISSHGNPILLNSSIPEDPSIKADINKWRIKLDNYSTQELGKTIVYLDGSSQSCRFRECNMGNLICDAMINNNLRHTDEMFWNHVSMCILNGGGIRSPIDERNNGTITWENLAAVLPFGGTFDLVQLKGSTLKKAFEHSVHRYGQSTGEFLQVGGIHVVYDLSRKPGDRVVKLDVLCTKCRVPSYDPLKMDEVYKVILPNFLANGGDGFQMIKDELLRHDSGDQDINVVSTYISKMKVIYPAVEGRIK
Procedure, shortened: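 Human CD73 (CHO-derived Trp27-Lys547, His-tagged; 0.5 nM final) was preincubated with compound for 15 min at 25° C. in Tris pH 7.5 buffer with MgCl2. It then reacted with 30 μM AMP for 20 min at 37° C., and released phosphate was read by malachite green absorbance at 635 nm. IC50 came from four-parameter fits against enzyme and no-enzyme controls.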

[2] = biological target: T2, Cell surface CD73 of U87 MG human glioblastoma cells (Homo sapiens, UniProt P21589); assay: CD73 Cellular Assay; type: cell-based; conditions: 5000 cells per well, 30 μM AMP substrate, read-out: Potency (IC50, CD73 cellular assay)
T2 construct: Cell surface CD73 catalyzes the conversion of adenosine monophosphate (AMP) to adenosine and inorganic phosphate; endogenous in cells; host or cells: U87 MG human glioblastoma cells
T2 sequence (P21589 27-549): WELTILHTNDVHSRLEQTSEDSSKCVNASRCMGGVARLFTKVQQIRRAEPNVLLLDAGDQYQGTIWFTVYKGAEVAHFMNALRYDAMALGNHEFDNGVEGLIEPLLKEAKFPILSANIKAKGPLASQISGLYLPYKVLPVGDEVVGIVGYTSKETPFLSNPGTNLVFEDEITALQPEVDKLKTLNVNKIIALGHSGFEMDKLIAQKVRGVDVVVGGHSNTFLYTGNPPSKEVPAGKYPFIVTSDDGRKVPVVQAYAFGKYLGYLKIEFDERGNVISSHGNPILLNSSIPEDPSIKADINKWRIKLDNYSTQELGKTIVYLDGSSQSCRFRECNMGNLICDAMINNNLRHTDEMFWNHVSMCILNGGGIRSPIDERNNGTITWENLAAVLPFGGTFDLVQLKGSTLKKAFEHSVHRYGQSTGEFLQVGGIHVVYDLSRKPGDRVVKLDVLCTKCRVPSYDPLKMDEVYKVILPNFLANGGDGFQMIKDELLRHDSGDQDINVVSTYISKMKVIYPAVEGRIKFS
Procedure: Cell surface CD73 catalyzes the conversion of adenosine monophosphate (AMP) to adenosine and inorganic phosphate. U87 MG human glioblastoma cells express high level of CD73. Cells are treated with compounds in a 96-well assay plate and supernatants are collected into a 384-well detection plate. The concentration of inorganic phosphate (Pi) in the supernatants is determined using the phosphate detection reagent, PiColorLock™ (Innova Bioscience, Cat #303-0125) following the manufacturer's instructions.
Briefly, on the day of the assay, U87 MG cells were harvested and resuspended in assay buffer which consisted of 20 mM HEPES, pH=7.4, 137 mM NaCl, 5.4 mM KCl, 1.3 mM CaCl2, 4.2 mM NaHCO3 and 0.1% glucose. To test the effect of compounds on cellular CD73 enzymatic activity, 500 nL/well of compounds dissolved in DMSO were added to a 96-well TC-treated microplate (Corning #3599). Next, 80 μL/well of U87 MG cells in assay buffer were added to assay plate. After 30 minutes of incubation in an atmosphere of 5% CO2 at 37° C., 20 μL/well of 150 μM AMP (Adenosine 5′-monophosphate monohydrate, Sigma, Cat #01930) in assay buffer was added to assay plate. Final assay conditions consisted of 5000 cells per well in 0.5% DMSO and 30 μM AMP substrate. After 50 minutes of incubation in an atmosphere of 5% CO2 at 37° C., 50 μL/well of supernatant was transferred to the 384-well detection plate (Corning® NBS™ 384 well plates, Cat #3640). Meanwhile “Gold mix” was prepared shortly before use by adding 1/100 volume of accelerator to the PiColorLock™ Gold reagent. 12 μL/well of the “Gold mix” was added to detection plate containing 50 μL/well of supernatant and incubated at 25° C. for 5 minutes. 5 μL/well stabilizer was added to the detection plate and incubated at 25° C. for 30 minutes. The absorbance at 635 nm was measured on a Spark 10M instrument (TECAN). The percent (%) inhibition at each concentration of a compound was calculated relative to the OD value in the Max and Min control wells contained within each assay plate. The Max control wells contained cells and substrate as 0% inhibition, and the Min control wells only contained cells as 100% inhibition. The concentrations and percent inhibition values for a test compound are plotted and the concentration of a the compound required to achieve 50% inhibition (IC50) was determined with a four-parameter logistic dose response equation.

IC50 [1] [nM] | IC50 [2] [nM] | Structure (SMILES)
< 10 | < 1 | CN(c1nc(Cl)nn2c([C@@H]3O[C@H](COP(=O)(O)CP(=O)(O)O)[C@@H](O)[C@H]3O)cnc12)C1CCCC1 [Compound 8, (((((2R,3S,4R,1S)-5-(2-chloro-4-(cyclopentyl(methyl)amino)imidazo[2,1-f][1,2,4]triazin-7-yl)-3,4-dihydroxytetrahydrofuran-2-yl)methoxy)(hydroxy)phosphoryl)methyl)phosphonic acid]
< 10 | < 1 | O=P(O)(O)CP(=O)(O)OC[C@H]1O[C@@H](c2cnc3c(NC4CCc5ccccc54)nc(Cl)nn23)[C@H](O)[C@@H]1O (stereo partly drawn) [Compound 9, (((((2R,3S,4R,1S)-5-(2-chloro-4-((2,3-dihydro-1H-inden-1-yl)amino)imidazo[2,1-f][1,2,4]triazin-7-yl)-3,4-dihydroxytetrahydrofuran-2-yl)methoxy)(hydroxy)phosphoryl)methy)phosphonic acid]
< 10 | < 1 | O=P(O)(O)CP(=O)(O)OC[C@H]1O[C@@H](c2cnc3c(N4CC5CCCC5C4)nc(Cl)nn23)[C@H](O)[C@@H]1O (stereo partly drawn) [Compound 10, (((((2R,3S,4R,1S)-5-(2-chloro-4-(hexahydrocyclopenta[c]pyrrol-2(1H)-yl)imidazo[2,1-f][1,2,4]triazin-7-yl)-3,4-dihydroxytetrahydrofuran-2-yl)methoxy)(hydroxy)phosphoryl)methy)phosphonic acid]
< 10 | < 1 | O=P(O)(O)CP(=O)(O)OC[C@H]1O[C@@H](c2cnc3c(NCc4ccccc4Cl)nc(Cl)nn23)[C@H](O)[C@@H]1O [Compound 11, [({[(2R,3S,4R,5S)-5-(2-chloro-4-{[(2-chlorophenyl)methyl]amino}imidazo[2,1-f][1,2,4]triazin-7-yl)-3,4-dihydroxyoxolan-2-yl]methoxy}(hydroxy)phosphoryl)methyl]phosphonic acid]
< 10 | < 1 | O=P(O)(O)CP(=O)(O)OC[C@H]1O[C@@H](c2cnc3c(NCC4CCOC4)nc(Cl)nn23)[C@H](O)[C@@H]1O (stereo partly drawn) [Compound 12, (((((2R,3S,4R,1S)-5-(2-chloro-4-(((tetrahydrofuran-3-yl)methyl)amino)imidazo[2,1-f][1,2,4]triazin-7-yl)-3,4-dihydroxytetrahydrofuran-2-yl)methoxy)(hydroxy)phosphoryl)methyl) phosphonic Acid]
< 10 | < 1 | O=P(O)(O)CP(=O)(O)OC[C@H]1O[C@@H](c2cnc3c(NC4CCOC4)nc(Cl)nn23)[C@H](O)[C@@H]1O (stereo partly drawn) [Compound 14, [({[(2R,3S,4R,5S)-5-[2-chloro-4-(oxolan-3-ylamino)imidazo[2,1-f][1,2,4]triazin-7-yl]-3,4-dihydroxyoxolan-2-yl]methoxy}(hydroxy)phosphoryl)methyl]phosphonic acid]
< 10 | < 1 | O=P(O)(O)CP(=O)(O)OC[C@H]1O[C@@H](c2coc3c(NCc4ccccc4)nc(Cl)nc23)[C@H](O)[C@@H]1O [Compound 15, [({[(2R,3S,4R,5S)-5-[4-(benzylamino)-2-chlorofuro[3,2-d]pyrimidin-7-yl]-3,4-dihydroxyoxolan-2-yl]methoxy}(hydroxy)phosphoryl)methyl]phosphonic Acid]
10 to 99 | 1 to 9.9 | O=P(O)(O)CP(=O)(O)OC[C@H]1O[C@@H](c2ccc3c(NCc4ccccc4)ncnn23)[C@H](O)[C@@H]1O [Compound 16, (((((2R,3S,4R,1S)-5-(4-(benzylamino)pyrrolo[2,1-f][1,2,4]triazin-7-yl)-3,4-dihydroxytetrahydrofuran-2-yl)methoxy)(hydroxy)phosphoryl)methyl)phosphonic acid]
< 10 | < 1 | CO[C@H]1CC[C@H](Nc2nc(Cl)nn3c([C@@H]4O[C@H](COP(=O)(O)CP(=O)(O)O)[C@@H](O)[C@H]4O)cnc23)CC1 [Compound 17, (((((2R,3S,4R,1S)-5-(2-chloro-4-(((1r,4S)-4-methoxycyclohexyl)amino)imidazo[2,1-f][1,2,4]triazin-7-yl)-3,4-dihydroxytetrahydrofuran-2-yl)methoxy)(hydroxy)phosphoryl)methyl)phosphonic acid]
< 10 | 1 to 9.9 | O=P(O)(O)CP(=O)(O)OC[C@H]1O[C@@H](c2cnc3c(N4CCc5ccccc54)nc(Cl)nn23)[C@H](O)[C@@H]1O [Compound 18, (((((2R,3S,4R,1S)-5-(2-chloro-4-(indolin-1-yl)imidazo[2,1-f][1,2,4]triazin-7-yl)-3,4-dihydroxytetrahydrofuran-2-yl)methoxy)(hydroxy)phosphoryl)methyl)phosphonic Acid]
< 10 | < 1 | O=P(O)(O)CP(=O)(O)OC[C@H]1O[C@@H](c2cnc3c(N4CCc5ccccc5C4)nc(Cl)nn23)[C@H](O)[C@@H]1O [Compound 19, (((((2R,3S,4R,1S)-5-(2-chloro-4-(3,4-dihydroisoquinolin-2(1H)-yl)imidazo[2,1-f][1,2,4]triazin-7-yl)-3,4-dihydroxytetrahydrofuran-2-yl)methoxy)(hydroxy)phosphoryl)methyl)phosphonic Acid]
< 10 | < 1 | O=P(O)(O)CP(=O)(O)OC[C@H]1O[C@@H](c2cnc3c(NC4CCCCC4)nc(Cl)nn23)[C@H](O)[C@@H]1O [Compound 20, (((((2R,3S,4R,1S)-5-(2-chloro-4-(cyclohexylamino)imidazo[2,1-f][1,2,4]triazin-7-yl)-3,4-dihydroxytetrahydrofuran-2-yl)methoxy)(hydroxy)phosphoryl)methyl)phosphonic Acid]
< 10 | < 1 | O=P(O)(O)CP(=O)(O)OC[C@H]1O[C@@H](c2cnc3c(N[C@H]4CCOC4)nc(Cl)nn23)[C@H](O)[C@@H]1O [Compound 21, [({[(2R,3S,4R,5S)-5-{2-chloro-4-[(3S)-oxolan-3-ylamino]imidazo[2,1-f][1,2,4]triazin-7-yl}-3,4-dihydroxyoxolan-2-yl]methoxy}(hydroxy)phosphoryl)methyl]phosphonic Acid]
